Source: the Biogen ADME set (Fang et al. 2023)
≈ marks a conversion by molar mass, not a printed value.

Settings: for aqueous solubility: pH 6.8

| Structure (SMILES) | MDR1-MDCK efflux ratio | intrinsic clearance, human liver microsomes [mL/min/kg] | intrinsic clearance, rat liver microsomes [mL/min/kg] | aqueous solubility [µg/mL] |
| --- | --- | --- | --- | --- |
| N#CCN(CN1C(=O)CC2(CCCC2)C1=O)C1CC1 | – | – | – | 38.5 (≈ 147 µM) |
| CC(C)c1cccc(CN2C(=O)N(C)C3(CCCCC3)C2=O)n1 | 1.13 | 826 | 4200 | 35 (≈ 111 µM) |
| Cc1csc(NC(=O)CCc2ccncc2)n1 | 0.876 | ≤ 4.74 | 45.3 | 38.1 (≈ 154 µM) |
| CC(=O)N1CCC(CCNc2ccc3ccc(F)cc3n2)CC1 | 0.795 | 21.5 | 264 | 46.2 (≈ 146 µM) |
| Cc1cn2c3c(=O)n(Cc4ccccc4Cl)c(=O)n(C)c3nc2n1-c1ccccc1O | 12.8 | – | – | 0.19 (≈ 0.436 µM) |
| O=C(NCC#CCN1CCc2ccccc2C1)NCc1ccc(F)cc1 | 4 | 79.7 | 545 | 33.5 (≈ 95.2 µM) |
| Cn1cc(NC(=O)c2cn(Cc3ccccc3)nn2)cn1 | 1.03 | ≤ 4.74 | ≤ 10.7 | 23.4 (≈ 82.8 µM) |
| O=C(CCc1ccc(Cl)cc1)N1CCCC(c2n[nH]cc2-c2cccc(F)c2)C1 (configuration not stated) | 5.67 | 930 | 3260 | 3.9 (≈ 9.47 µM) |
| C=CCn1c(=O)c2cnc(Nc3ccc(N4CCN(C)CC4)cc3)nc2n1-c1cccc(C(C)(C)O)n1 | 63.4 | 32.7 | 67.9 | – |
| Cc1ccc(NC(=O)CN2CCCN(c3ccc(C(F)(F)F)cn3)CC2)cc1 | 0.857 | 126 | 602 | 12.9 (≈ 33 µM) |
| Cc1ccc(Cn2nc(C(=O)N[C@@H]3C(C)(C)[C@@H]4CC[C@@]3(C)C4)cc2-c2ccc(Cl)c(C)c2)cc1 | 0.636 | 181 | 676 | 1.29 (≈ 2.71 µM) |
| CCN(CC#N)C(=O)c1nn(-c2ccc(F)cc2)c2c1CCCC2 | 0.712 | 50.2 | 397 | 40.5 (≈ 124 µM) |
| O=C(CN1CCCC(c2ccc3cn[nH]c3n2)C1)N1CCCC1 (configuration not stated) | 30.2 | 9.13 | 337 | 38 (≈ 121 µM) |

Other lines, results leading:

| MDR1-MDCK efflux ratio | intrinsic clearance, human liver microsomes [mL/min/kg] | intrinsic clearance, rat liver microsomes [mL/min/kg] | aqueous solubility [µg/mL] | Structure (SMILES) |
| --- | --- | --- | --- | --- |
| 0.666 | 15 | 290 | – | CN(Cc1ccc(OC(F)(F)F)cc1)Cc1cn(C)nn1 |
| 0.559 | 120 | 436 | – | Cc1ccc(-n2cc(C)cn2)c(NC(=O)CN(C)C)c1 |
| 15.6 | 10.7 | 257 | – | O=c1c2c(C(F)(F)F)cccc2ncn1CCc1ncc[nH]1 |
| 1.48 | 370 | 944 | 44.4 (≈ 86 µM) | Cc1cc(=O)n(C)c2cc(N3C(=O)CC[C@H](NS(=O)(=O)CC(C)C)[C@H]3c3ccc(Cl)cc3)ccc12 |
| – | 32.2 | 94.5 | 94.4 (≈ 186 µM) | CN(c1ncccc1CNc1nc(Nc2ccc3c(c2)CC(=O)N3)ncc1C(F)(F)F)S(C)(=O)=O |
| – | 75 | 591 | – | Fc1cc(-c2noc(C3CCN(C4CC4)CC3)n2)cc(F)c1F |
| – | 38.8 | 351 | – | CCNC(=O)c1noc(-c2cc(C(C)C)c(O)cc2O)c1-c1ccc(CN2CCOCC2)cc1 |
| 0.749 | ≤ 4.74 | 107 | – | COc1cc(OC)cc(-c2c(C)ncnc2OC)c1 |
| 2.77 | 21.6 | 2910 | – | Cc1cccc(-c2cccc(C(=O)NCCC3(O)CCCC3)c2)n1 |
